Remaining activity data for 29 compounds are collected here from US20110313156A1 (BOEHRINGER INGELHEIM INTERNATIONAL GMBH, priority 2008, published 2011).

The target in this test is T1, His6-PDK1 (aa 52-556) (Homo sapiens, UniProt O15530).
T1 construct: 15 μL His6-PDK1 (aa 52-556) 3.33 ng/well); host or cells: baculovirus-infected insect cells
T1 sequence (O15530 52-556): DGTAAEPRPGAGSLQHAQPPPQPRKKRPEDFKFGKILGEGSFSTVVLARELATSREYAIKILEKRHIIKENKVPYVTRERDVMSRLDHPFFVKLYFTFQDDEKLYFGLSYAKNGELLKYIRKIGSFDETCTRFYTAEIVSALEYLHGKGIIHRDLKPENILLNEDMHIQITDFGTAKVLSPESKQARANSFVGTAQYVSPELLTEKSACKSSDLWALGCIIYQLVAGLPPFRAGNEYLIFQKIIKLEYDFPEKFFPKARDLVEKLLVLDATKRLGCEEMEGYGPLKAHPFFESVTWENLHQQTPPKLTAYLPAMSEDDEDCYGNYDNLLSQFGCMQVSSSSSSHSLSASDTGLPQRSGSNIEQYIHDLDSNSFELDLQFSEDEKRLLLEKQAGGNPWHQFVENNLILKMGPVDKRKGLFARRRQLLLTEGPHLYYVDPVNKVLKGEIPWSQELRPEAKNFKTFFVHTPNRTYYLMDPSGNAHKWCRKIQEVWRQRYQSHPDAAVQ
As to the kind of experiment: PDK1 kinase assay III (with Tween 20). In kind it is biochemical. As to conditions: compound at 10 μM; PDK1 kinase assay III (values without asterisk); read-out: % CTL (residual activity of the enzyme relative to DMSO control). The method, boiled down:
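Started with ATP, incubated 90 min at ambient temperature, then stopped with phosphoric acid. Asterisked values come from assay II (24 h or 5 min incubation).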
Take `Cc1c(C(=O)NC/C=C/c2ccc3nc(Nc4ccccc4)ncc3c2)c(=O)n(Cc2ccc(F)c(F)c2)n1C` [IV-5, 2-(3,4-difluorobenzyl)-1,5-dimethyl-3-oxo-N-{(2E)-3-[2-(phenylamino)quinazolin-6-yl]prop-2-en-1-yl}-2,3-dihydro-1H-pyrazole-4-carboxamide]: the remaining activity at 10 µM turned out to be 13.6%.
For the compound `CN(C)Cc1ccc(Nc2ncc3cc(/C=C/CNC(=O)c4ccnn(Cc5ccc(F)c(F)c5)c4=O)ccc3n2)cc1` [IV-51, 2-(3,4-difluorobenzyl)-N-{(2E)-3-[2-({4-[(dimethylamino)methyl]phenyl}-amino)quinazolin-6-yl]prop-2-en-1-yl}-3-oxo-2,3-dihydropyridazine-4-carboxamide], the remaining activity at 10 µM is 14.5%.
For `Nc1ncc2cc(/C=C/CNC(=O)c3cncn(Cc4ccc(F)c(F)c4)c3=O)ccc2n1` [IV-48, N-[(2E)-3-(2-aminoquinazolin-6-yl)prop-2-en-1-yl]-1-(3,4-difluorobenzyl)-6-oxo-1,6-dihydropyrimidine-5-carboxamide], the remaining activity at 10 µM is 24.4%.
The value for `Cc1c(C(=O)NCC#Cc2ccc3c(-c4ccc[nH]4)n[nH]c3c2)c(=O)n(Cc2ccc(F)c(F)c2)n1C` [II-1, 2-(3,4-difluorobenzyl)-1,5-dimethyl-3-oxo-N-{3-[3-(1H-pyrrol-2-yl)-1H-indazol-6-yl]prop-2-yn-1-yl}-2,3-dihydro-1H-pyrazole-4-carboxamide] was 13%.
Take `Cc1c(C(=O)NC/C=C/c2ccc3nc(Nc4ccc(N(C)C5CCN(C)CC5)cc4)ncc3c2)c(=O)n(Cc2ccc(F)c(F)c2)n1C` [IV-54, 2-(3,4-difluorobenzyl)-1,5-dimethyl-N-{(2E)-3-[2-({4-[methyl(1-methylpiperidin-4-yl)amino]phenyl}amino)quinazolin-6-yl]prop-2-en-1-yl}-3-oxo-2,3-dihydro-1H-pyrazole-4-carboxamide]: the remaining activity at 10 µM was found to be 16.6%.
In the case of `Cc1nc[nH]c1/C=C1\C(=O)Nc2cc(/C=C/CNC(=O)c3cncn(Cc4ccc(F)c(F)c4)c3=O)ccc21` [I-4, 1-(3,4-difluorobenzyl)-N-[(2E)-3-{(3Z)-3-[(5-methyl-1H-imidazol-4-yl)methylidene]-2-oxo-2,3-dihydro-1H-indol-6-yl]prop-2-en-1-yl}-6-oxo-1,6-dihydropyrimidine-5-carboxamide] it was 16.4%; in that of `Cc1c(C(=O)NCC#Cc2cc3cnc(Nc4ccc(N5CCOCC5)cc4)nc3n(C(C)C)c2=O)c(=O)n(Cc2ccc(F)c(F)c2)n1C` [IV-58, 2-(3,4-difluorobenzyl)-1,5-dimethyl-N-{3-[2-{[4-(morpholin-4-yl)phenyl]amino}-7-oxo-8-(propane-2-yl)-7,8-dihydropyrido[2,3-c]pyrimidin-6-yl]prop-2-yn-1-yl}-3-oxo-2,3-dihydro-1H-pyrazole-4-carboxamide], 14.6%.
On to `CN1CCC(N(C)c2ccc(Nc3ncc4cc(/C=C/CNC(=O)c5nccn(Cc6ccc(F)c(F)c6)c5=O)ccc4n3)cc2)CC1` [IV-49, 4-(3,4-difluorobenzyl)-N-{(2E)-3-[2-({4-[methyl(1-methylpiperidin-4-yl)amino]-phenyl}amino)quinazolin-6-yl]prop-2-en-1-yl}-3-oxo-3,4-dihydropyrazine-2-carboxamide], for which the remaining activity at 10 µM was determined as 13.5%.
For the compound `Cc1c(C(=O)NCC#Cc2ccc3nc(NC4CCC4)ncc3c2)c(=O)n(Cc2ccc(F)c(F)c2)n1C`, the remaining activity at 10 µM turned out to be 12.3%.
The value for `CC(C)n1c(=O)c(C#CCNC(=O)c2cncn(Cc3ccc(F)c(F)c3)c2=O)cc2cnc(Nc3ccc(N4CCOCC4)cc3)nc21` [IV-59, 1-(3,4-difluorobenzyl)-N-{3-[2-{[4-(morpholin-4-yl)phenyl]amino}-7-oxo-8-(propane-2-yl)-7,8-dihydropyrido[2,3-c]pyrimidin-6-yl]prop-2-yn-1-yl}-6-oxo-1,6-dihydropyrimidine-5-carboxamide] was 12.9%; that for `Cc1c(C(=O)NCC#Cc2ccc3nc(Nc4ccc(C(=O)N(C)CCCO)cc4)ncc3c2)c(=O)n(Cc2ccc(F)c(F)c2)n1C` was 23.2%; that for `Cc1c(C(=O)NCC#Cc2cc(OC3CCNCC3)c3nc(Nc4ccc(N5CCOCC5)cc4)ncc3c2)c(=O)n(Cc2ccc(F)c(F)c2)n1C` was 12.3%.
For the compound `COC(=O)c1ccc(Nc2ncc3cc(/C=C/CNC(=O)c4c(C)n(C)n(Cc5ccc(F)c(F)c5)c4=O)ccc3n2)cc1`, the remaining activity at 10 µM stood at 20.7%.
In the case of `CNC(=O)c1ccc(Nc2ncc3cc(/C=C/CNC(=O)c4cncn(Cc5ccc(F)c(F)c5)c4=O)ccc3n2)cc1Cl` it was 14.1%.
As to `Cc1c(C(=O)NCC#Cc2ccc3nc(Nc4ccc(C(=O)N(C)CCCN(C)C)cc4)ncc3c2)c(=O)n(Cc2ccc(F)c(F)c2)n1C` [III-90], the remaining activity at 10 µM worked out at 13.3%.
Take `Cc1c(C(=O)NCC#Cc2ccc3nc(Nc4ccc(C(=O)N(C)CCO)cc4)ncc3c2)c(=O)n(Cc2ccc(F)c(F)c2)n1C`: the remaining activity at 10 µM worked out at 14.4%.
On to `CN1CCC(Nc2ccc(Nc3ncc4cc(/C=C/CNC(=O)c5cncn(Cc6ccc(F)c(F)c6)c5=O)ccc4n3)cc2F)CC1` [IV-46, 1-(3,4-difluorobenzyl)-N-{(2E)-3-[2-({3-fluoro-4-[(1-methylpiperidin-4-yl)amino]-phenyl}amino)quinazolin-6-yl]prop-2-en-1-yl}-6-oxo-1,6-dihydropyrimidine-5-carboxamide], for which the remaining activity at 10 µM came to 11.9%.
The value for `CN1CCC(Nc2ccc(Nc3ncc4cc(/C=C/CNC(=O)c5nccn(Cc6ccc(F)c(F)c6)c5=O)ccc4n3)cc2F)CC1` [IV-50, 4-(3,4-difluorobenzyl)-N-{(2E)-3-[2-({3-fluoro-4-[(1-methylpiperidin-4-yl)amino]-phenyl}amino)quinazolin-6-yl]prop-2-en-1-yl}-3-oxo-3,4-dihydropyrazine-2-carboxamide] was 11.6%.
Consider `O=C1Nc2cc(/C=C/CNC(=O)c3cncn(Cc4ccc(F)c(F)c4)c3=O)ccc2/C1=C/c1c[nH]c(-c2cccnc2)n1` [I-36, 1-(3,4-difluorobenzyl)-6-oxo-N-{(2E)-3-[(3Z)-2-oxo-3-{[2-(pyridin-3-yl)-1H-imidazol-4-yl]methylidene}-2,3-dihydro-1H-indol-6-yl]prop-2-en-1-yl}-1,6-dihydropyrimidine-5-carboxamide], for which the remaining activity at 10 µM turned out to be 25.4%.
For the compound `COCCN(C)C(=O)c1ccc(Nc2ncc3cc(C#CCNC(=O)c4c(C)n(C)n(Cc5ccc(F)c(F)c5)c4=O)ccc3n2)cc1`, the remaining activity at 10 µM was determined as 17.2%.
The value for `O=C(NCc1ccc(Nc2ncnc3[nH]ccc23)cc1)c1cncn(Cc2ccc(F)c(F)c2)c1=O` [IV-27, 1-(3,4-difluorobenzyl)-6-oxo-N-[4-(7H-pyrrolo[2,3-d]pyrimidin-4-ylamino)benzyl]-1,6-dihydropyrimidine-5-carboxamide] was 43.9%; that for `CN(C)CCNC(=O)c1ccc(Nc2ncc3cc(C#CCNC(=O)c4cncn(Cc5ccc(F)c(F)c5)c4=O)ccc3n2)cc1` was 18.5%; that for `Cc1c(C(=O)NCC#Cc2ccc3nc(Nc4ccc(CN(C)C)cc4)ncc3c2)c(=O)n(Cc2ccc(F)c(F)c2)n1C` [III-20, 2-(3,4-difluorobenzyl)-N-{3-[2-({4-[(dimethylamino)methyl]phenyl}amino)-quinazolin-6-yl]prop-2-yn-1-yl}-1,5-dimethyl-3-oxo-2,3-dihydro-1H-pyrazole-4-carboxamide] was 13.7%.
With `Cc1c(C(=O)NC/C=C/c2ccc3nc(Nc4ccc(C(=O)NC5CCN(C)CC5)c(Cl)c4)ncc3c2)c(=O)n(Cc2ccc(F)c(F)c2)n1C`, the remaining activity at 10 µM was determined as 14.4%.
Take `O=C1Nc2cc(/C=C/CNC(=O)C3CCCN(Cc4ccc(F)c(F)c4)C3=O)ccc2/C1=C/c1ccc[nH]1` (centres unmarked) [I-10, 1-(3,4-difluorobenzyl)-2-oxo-N-{(2E)-3-[(3Z)-2-oxo-3-(1H-pyrrol-2-ylmethylidene)-2,3-dihydro-1H-indol-6-yl]prop-2-en-1-yl}piperidine-3-carboxamide]: the remaining activity at 10 µM was 36.1%.
The value for `CN(C)Cc1ccc(Nc2ncc3cc(C#CCNC(=O)c4ccnn(Cc5ccc(F)c(F)c5)c4=O)ccc3n2)cc1` was 13.3%; that for `CN(C)Cc1ccc(Nc2ncc3c(F)c(C#CCNC(=O)c4cncn(Cc5ccc(F)c(F)c5)c4=O)ccc3n2)cc1` [III-24, 1-(3,4-difluorobenzyl)-N-{3-[2-({4-[(dimethylamino)methyl]phenyl}amino)-5-fluoroquinazolin-6-yl]prop-2-yn-1-yl}-6-oxo-1,6-dihydropyrimidine-5-carboxamide] was 8.9%.
Consider `Cc1c(/C=C/CNC(=O)c2cncn(Cc3ccc(F)c(F)c3)c2=O)c(=O)n(C(C)C)c2nc(Nc3ccc(N4CCOCC4)cc3)ncc12` [IV-38, 1-(3,4-difluorobenzyl)-N-{(2E)-3-[5-methyl-2-{[4-(morpholin-4-yl)phenyl]amino}-7-oxo-8-(propane-2-yl)-7,8-dihydropyrido[2,3-d]pyrimidin-6-yl]prop-2-en-1-yl}-6-oxo-1,6-dihydropyrimidine-5-carboxamide], for which the remaining activity at 10 µM amounted to 11.8%.
For the compound `Cc1c(C(=O)NCC#Cc2cc(OC3CCNC3)c3nc(Nc4ccc(N5CCOCC5)cc4)ncc3c2)c(=O)n(Cc2ccc(F)c(F)c2)n1C` (centres unmarked) [III-76], the remaining activity at 10 µM worked out at 11.8%.
